In patent US20230093099A1, “COMPOUNDS AND METHODS OF TREATING CANCERS” (CULLGEN (SHANGHAI), INC., priority 2019, published 2023):

Tested on: RS4;11 cells
Assay: Cell viability assay (CellTiter-Glo) in RS4;11 cells
Assay type: cell-based
Details: Homo sapiens, 72 h; RS4;11 ALL cells treated for three days; read-out: cell viability inhibition IC50
How it was run: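 Three-day compound treatment of RS4;11 ALL cells (5000/well, 3-fold dilution series of 8 or 12 points), with IC50 from a nonlinear least-squares fit to CellTiter-Glo viability data.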

IC50 [nM]	SMILES
< 100	O=C1CCC(N2C(=O)c3ccc(NCCCCC(=O)N4CCC(n5cc(-c6cnc7cccc(-c8cc(F)c(CN9CCOCC9)c(F)c8)c7n6)cn5)CC4)cc3C2=O)C(=O)N1 (stereo not drawn) [JA-182, 5-((5-(4-(4-(8-(3,5-difluoro-4-(morpholinomethyl)phenyl)quinoxalin-2-yl)-1H-pyrazol-1-yl)piperidin-1-yl)-5-oxopentyl)amino)-2-(2,6-dioxopiperidin-3-yl)isoindoline-1,3-dione]

Same assay, conditions: Homo sapiens, 72 h; RS4;11 cells; cell viability, 3 days, CellTiter-Glo; read-out: IC50

SMILES	IC50 [nM]
O=C1CCC(N2C(=O)c3cccc(NCCCC(=O)N4CCC(n5cc(-c6cnc7cccc(-c8cc(F)c(CN9CCOCC9)c(F)c8)c7n6)cn5)CC4)c3C2=O)C(=O)N1 (stereo not drawn) [JA-005, 4-[[4-[4-[4-[8-[3,5-Difluoro-4-(morpholinomethyl)phenyl]quinoxalin-2-yl]pyrazol-1-yl]-1-piperidyl]-4-oxo-butyl]amino]-2-(2,6-dioxo-3-piperidyl)isoindoline-1,3-dione]	510
O=C1CCC(N2C(=O)c3ccc(NCCCCC(=O)N4CCC(n5cc(-c6cnc7cccc(-c8cc(F)c(CN9CCOCC9)c(F)c8)c7n6)cn5)CC4)cc3C2=O)C(=O)N1 (stereo not drawn) [JA-182, 5-((5-(4-(4-(8-(3,5-difluoro-4-(morpholinomethyl)phenyl)quinoxalin-2-yl)-1H-pyrazol-1-yl)piperidin-1-yl)-5-oxopentyl)amino)-2-(2,6-dioxopiperidin-3-yl)isoindoline-1,3-dione]	13.8
O=C1CCC(N2C(=O)c3ccc(NCCOCCC(=O)N4CCC(n5cc(-c6cnc7cccc(-c8cc(F)c(CN9CCOCC9)c(F)c8)c7n6)cn5)CC4)cc3C2=O)C(=O)N1 (stereo not drawn) [JA-181, 5-((2-(3-(4-(4-(8-(3,5-Difluoro-4-(morpholinomethyl)phenyl)quinoxalin-2-yl)-1H-pyrazol-1-yl)piperidin-1-yl)-3-oxopropoxy)ethyl)amino)-2-(2,6-dioxopiperidin-3-yl)isoindoline-1,3-dione]	1690
Cc1ncsc1-c1ccc(CNC(=O)[C@@H]2C[C@@H](O)CN2C(=O)[C@@H](NC(=O)CCCCCCCC(=O)N2CCC(n3cc(-c4cnc5cccc(-c6cc(F)c(CN7CCOCC7)c(F)c6)c5n4)cn3)CC2)C(C)(C)C)cc1 [JA-051, (2S,4R)-1-[(2S)-2-[[9-[4-[4-[8-[3,5-Difluoro-4-(morpholinomethyl)phenyl]quinoxalin-2-yl]pyrazol-1-yl]-1-piperidyl]-9-oxo-nonanoyl]amino]-3,3-dimethyl-butanoyl]-4-hydroxy-N-[[4-(4-methylthiazol-5-yl)phenyl]methyl]pyrrolidine-2-carboxamide]	4640
Cc1ncsc1-c1ccc(CNC(=O)[C@@H]2C[C@@H](O)CN2C(=O)[C@@H](NC(=O)CCCCNC(=O)CN2CCC(n3cc(-c4cnc5cccc(-c6cc(F)c(CN7CCOCC7)c(F)c6)c5n4)cn3)CC2)C(C)(C)C)cc1 [JA-168, (2S,4R)-1-((S)-2-(5-(2-(4-(4-(8-(3,5-Difluoro-4-(morpholinomethyl)phenyl)quinoxalin-2-yl)-1H-pyrazol-1-yl)piperidin-1-yl)acetamido)pentanamido)-3,3-dimethylbutanoyl)-4-hydroxy-N-(4-(4-methylthiazol-5-yl)benzyl)pyrrolidine-2-carboxamide]	> 10000
Cc1ncsc1-c1ccc(CNC(=O)[C@@H]2C[C@@H](O)CN2C(=O)[C@@H](NC(=O)CCCC(=O)N2CCN(c3ccc(Nc4nc5cccc(-c6ccc(S(C)(=O)=O)cc6)n5n4)cc3)CC2)C(C)(C)C)cc1 [JA-066, (2S,4R)-1-((S)-3,3-Dimethyl-2-(5-(4-(4-((5-(4-(methylsulfonyl)phenyl)-[1,2,4]triazolo[1,5-a]pyridin-2-yl)amino)phenyl)piperazin-1-yl)-5-oxopentanamido)butanoyl)-4-hydroxy-N-(4-(4-methylthiazol-5-yl)benzyl)pyrrolidine-2-carboxamide]	> 10000
Cc1ncsc1-c1ccc(CNC(=O)[C@@H]2C[C@@H](O)CN2C(=O)[C@@H](NC(=O)CCOCCOCCNC(=O)CN2CCN(c3ccc(Nc4nc5cccc(-c6ccc(S(C)(=O)=O)cc6)n5n4)cc3)CC2)C(C)(C)C)cc1 [JA-135, (2S,4R)-1-((S)-14-(tert-Butyl)-1-(4-(4-((5-(4-(methylsulfonyl)phenyl)-[1,2,4]triazolo[1,5-a]pyridin-2-yl)amino)phenyl)piperazin-1-yl)-2,12-dioxo-6,9-dioxa-3,13-diazapentadecan-15-oyl)-4-hydroxy-N-(4-(4-methylthiazol-5-yl)benzyl)pyrrolidine-2-carboxamide]	> 10000
CS(=O)(=O)c1ccc(-c2cccc3nc(Nc4ccc(N5CCN(CC(=O)NCCOCCOCCNc6cccc7c6C(=O)N(C6CCC(=O)NC6=O)C7=O)CC5)cc4)nn23)cc1 (stereo not drawn) [JA-115, N-(2-(2-(2-((2-(2,6-Dioxopiperidin-3-yl)-1,3-dioxoisoindolin-4-yl)amino)ethoxy)ethoxy)ethyl)-2-(4-(4-((5-(4-(methylsulfonyl)phenyl)-[1,2,4]triazolo[1,5-a]pyridin-2-yl)amino)phenyl)piperazin-1-yl)acetamide]	2140
Cc1cnc(Nc2ccc(N3CCN(CC(=O)NCCOCCOCCOCCOCCNc4cccc5c4C(=O)N(C4CCC(=O)NC4=O)C5=O)CC3)cc2)nc1Nc1cccc(S(=O)(=O)NC(C)(C)C)c1 (stereo not drawn) [JA-089, 2-(4-(4-((4-((3-(N-(tert-Butyl)sulfamoyl)phenyl)amino)-5-methylpyrimidin-2-yl)amino)phenyl)piperazin-1-yl)-N-(14-((2-(2,6-dioxopiperidin-3-yl)-1,3-dioxoisoindolin-4-yl)amino)-3,6,9,12-tetraoxatetradecyl)acetamide]	975

Other lines, results leading:

IC50 [nM]	SMILES
562	O=C1CCC(N2Cc3cc(CCCCCCC(=O)N4CCC(n5cc(-c6cnc7cccc(-c8cc(F)c(CN9CCOCC9)c(F)c8)c7n6)cn5)CC4)ccc3C2=O)C(=O)N1 (stereo not drawn) [JA-270, 3-(5-(7-(4-(4-(8-(3,5-Difluoro-4-(morpholinomethyl)phenyl)quinoxalin-2-yl)-1H-pyrazol-1-yl)piperidin-1-yl)-7-oxoheptyl)-1-oxoisoindolin-2-yl)piperidine-2,6-dione]
> 10000	CS(=O)(=O)c1ccc(-c2cccc3nc(Nc4ccc(N5CCN(CC(=O)NCCCCCNc6ccc7c(c6)C(=O)N(C6CCC(=O)NC6=O)C7=O)CC5)cc4)nn23)cc1 (stereo not drawn) [JA-204, N-(5-((2-(2,6-Dioxopiperidin-3-yl)-1,3-dioxoisoindolin-5-yl)amino)pentyl)-2-(4-(4-((5-(4-(methylsulfonyl)phenyl)-[1,2,4]triazolo[1,5-a]pyridin-2-yl)amino)phenyl)piperazin-1-yl)acetamide]
66	O=C1CCC(N2Cc3cc(NCCCCCC(=O)N4CCC(n5cc(-c6cnc7cccc(-c8cc(F)c(CN9CCOCC9)c(F)c8)c7n6)cn5)CC4)ccc3C2=O)C(=O)N1 (stereo not drawn) [JA-273, 3-(5-((6-(4-(4-(8-(3,5-difluoro-4-(morpholinomethyl)phenyl)quinoxalin-2-yl)-1H-pyrazol-1-yl)piperidin-1-yl)-6-oxohexyl)amino)-1-oxoisoindolin-2-yl)piperidine-2,6-dione]
> 10000	O=C1CCC(N2C(=O)c3ccc(NCCCC(=O)N4CCC(n5cc(-c6cnc7cccc(-c8cc(F)c(CN9CCOCC9)c(F)c8)c7n6)cn5)CC4)cc3C2=O)C(=O)N1 (stereo not drawn) [JA-192, 5-((4-(4-(4-(8-(3,5-Difluoro-4-(morpholinomethyl)phenyl)quinoxalin-2-yl)-1H-pyrazol-1-yl)piperidin-1-yl)-4-oxobutyl)amino)-2-(2,6-dioxopiperidin-3-yl)isoindoline-1,3-dione]
164	O=C1CCC(N2C(=O)c3ccc(OCCCCCC(=O)N4CCC(n5cc(-c6cnc7cccc(-c8cc(F)c(CN9CCOCC9)c(F)c8)c7n6)cn5)CC4)cc3C2=O)C(=O)N1 (stereo not drawn) [JA-260, 5-((6-(4-(4-(8-(3,5-Difluoro-4-(morpholinomethyl)phenyl)quinoxalin-2-yl)-1H-pyrazol-1-yl)piperidin-1-yl)-6-oxohexyl)oxy)-2-(2,6-dioxopiperidin-3-yl)isoindoline-1,3-dione]
